Test results: patent publication USRE46698E1, “Use of cyclohexanol derivatives as antimicrobial active compounds” (MERCK PATENT GMBH, priority 2011, dated 2018)

Columns and labels:
[1] = Rancimate assay, antioxidative capacity (Example 1); details: 0.1% w/w in soya oil; 120° C.; input of air 201/h
Description: The antioxidative capacity of substances I-9, I-10 and I-2 is determined in the so-called Rancimate assay. The comparative substances used are 4-t-butyl-1-cyclohexanol and tocopherol. The positive standard employed is BHT. The measurement parameter is the time duration (induction time) of the increase in the conductivity of unstabilised soya oil on exposure to air at elevated temperature. The longer the induction time, the greater the stabilising or antioxidant action. The following boundary conditions were maintained: input of air 201/h; temperature 120° C. and sample concentrations of 0.1% w/w each in soya oil. For each test substance, a relative antioxidation-protection factor is determined, which corresponds to the ratio of the induction times with and without test substance: […]

[2] = tested on: S. epidermidis (ATCC 12228); assay: Growth inhibition by optical density, Bioscreen C (Example 3); assay type: cell-based, Staphylococcus epidermidis; details: 1st experiment; 1.0% sample in water/ethanol (12% of ethanol) diluted 1 to 2 with bacteria suspension; 37° C.; negative control 0.80
Description: For sample preparation, the substances being investigated are each dissolved or homogeneously dispersed in an amount of 1.0% in a water/ethanol mixture (12% of ethanol) and subsequently diluted with bacteria suspension in the ratio 1 to 2. S. epidermidis (ATCC 12228) is pre-incubated under aerobic conditions for 24 h at 35° C. on CASO agar (Merck 1.05458). A bacteria suspension having an optical density (OD) of about 1.0 is subsequently prepared in CASO broth (Merck 1.05459, double-concentrated) and diluted again 1:10 in CASO broth. 150 μl of freshly prepared sample are added to 150 μl of bacteria suspension per well. The optical density is determined over the course of time at 37° C. using a Bioscreen C™ analyser compared with the negative control (=vehicle without test substance). Compared with the negative control, reduced optical densities confirm growth-inhibiting substance actions
(§1) Result as optical density of the bacteria suspension after an exposure time of 20 hours: […]

[3] = tested on: P. acnes (ATCC 6919); assay: Growth inhibition by optical density, Bioscreen C (Example 4); assay type: cell-based, Propionibacterium acnes; details: 1.0% sample in water/ethanol (12% of ethanol) diluted 1 to 2 with bacteria suspension; 37° C.; negative control 1.0
Description: (§2) For sample preparation, the substances being investigated are each dissolved or homogeneously dispersed in an amount of 1.0% in a water/ethanol mixture (12% of ethanol) and subsequently diluted with bacteria suspension in the ratio 1 to 2. P. acnes (ATCC 6919) is pre-incubated under anaerobic conditions for 48 h at 35° C. on RMC agar (Merck 1.05410). A bacteria suspension having an optical density (OD) of about 1.5 is subsequently prepared in RMC broth (Merck 1.05411, double-concentrated). 150 μl of freshly prepared sample and 100 μl of paraffin are added to 150 μl of bacteria suspension per well. The optical density is determined over the course of time at 37° C. using a Bioscreen C™ analyser compared with the negative control (=vehicle without test substance). Compared with the negative control, reduced optical densities confirm growth-inhibiting substance actions.
as §1

[4] = tested on: S. epidermidis (ATCC 12228); assay: Microbe count determination, bacteriostatic or bactericidal action (Example 5); assay type: cell-based, Staphylococcus epidermidis; details: 24 h at 35° C.
Description: (§3) For sample preparation, the substances being investigated are each dissolved or homogeneously dispersed in an amount of 1.0% in a water/ethanol mixture (12% of ethanol) (=sample). A bacteria suspension of S. epidermidis (ATCC 12228) having an optical density of 1.0 in CASO broth (Merck 1.05459) is diluted 1:10000 with CASO broth. 500 μl of sample are added to 500 μl of bacteria suspension, and the mixture is incubated at 35° C. for 24 h. After the incubation, the test batches are diluted to −6 in 10 unit steps, and 0.1 ml of each is plated-out on CASO agar (Merck 1.05458) and incubated at 35° C. for 24 h.
(§4) In order to determine the initial microbe count, 0.1 ml of the bacteria suspension used are plated-out on CASO agar (Merck 1.05458) and incubated at 35° C. for 24 h.
(§5) The colonies are subsequently counted, and the microbe count per ml is determined compared with the negative control (12% of ethanol in water).

[5] = tested on: Candida albicans; assay: Antimicrobial action, microbe count (Example 6); assay type: cell-based; details: conc. 0.5%; for Δlog: t24 h
Description: as §3, §4, §5
(§6) The procedure corresponds to that described in Examples 4 and 5 using the microorganisms shown below. The concentrations indicated are the final use concentrations. In order to prepare the stock solution, double the final concentration were prepared in the solvent indicated. This was subsequently diluted 1:2 with the corresponding microbe suspension. In the case of Aspergillus brasiliensis, the microbe count determination was exceptionally carried out after 48 h.

[6] = tested on: Aspergillus brasiliensis; assay: Antimicrobial action, microbe count (Example 6); assay type: cell-based; details: conc. 0.5%, H2O (12% of ethanol), count t0 2.0 × 10^4
Description: as §2, §3, §4, §5, §6

[7] = tested on: Corynebacterium xerosis; assay: Antimicrobial action, microbe count (Example 6); assay type: cell-based; details: conc. 0.5%, H2O (12% of ethanol), count t0 3.5 × 10^4
Description: as §2, §3, §4, §5, §6

[8] = tested on: Echerichia coli; assay: Antimicrobial action, microbe count (Example 6); assay type: cell-based; details: conc. 0.5%, H2O (12% of ethanol), count t0 4.6 × 10^4
Description: as §2, §3, §4, §5, §6

[9] = tested on: Propionibacterium acnes; assay: Antimicrobial action, microbe count (Example 6); assay type: cell-based; details: conc. 0.5%, H2O (12% of ethanol), count t0 2.0 × 10^4
Description: as §2, §3, §4, §5, §6

[10] = tested on: Pseudomonas aeruginosa; assay: Antimicrobial action, microbe count (Example 6); assay type: cell-based; details: conc. 0.5%, H2O (12% of ethanol), count t0 6.8 × 10^4
Description: as §2, §3, §4, §5, §6

[11] = tested on: Salmonella enterica; assay: Antimicrobial action, microbe count (Example 6); assay type: cell-based; details: conc. 0.5%; for Δlog: t24 h
Description: as §2, §3, §4, §5, §6

[12] = tested on: Serratia marcescens; assay: Antimicrobial action, microbe count (Example 6); assay type: cell-based; details: conc. 0.5%; for Δlog: t24 h
Description: as §2, §3, §4, §5, §6

[13] = tested on: Staphylococcus epidermidis; assay: Antimicrobial action, microbe count (Example 6); assay type: cell-based; details: conc. 0.5%, H2O (12% of ethanol), count t0 3.4 × 10^4
Description: as §2, §3, §4, §5, §6

[14] = H2O (12% of ethanol), count t0 3.4 × 10^4
[15] = H2O (12% of ethanol), count t0 6.0 × 10^4
[16] = H2O (12% of ethanol), count t0 6.8 × 10^4

CCOC(=O)C1CCCCC1O (centres unmarked) [Substance I-2]
Antioxidation-protection factor (ratio of the induction times with and without test substance) [1]: 1.15
OD20h, optical density of the bacteria suspension after 20 hours [2]: 0.30
OD20h, optical density of the bacteria suspension after 20 hours [3]: 0.45
Final microbe count ([4]; 1.0% sample in 12% ethanol, 500 μl + 500 μl bacteria suspension, initial count 3.8 × 10^4, negative control 5.0 × 10^7): 2.9 × 10^4 CFU/ml
Note: bacteriostatic or bactericidal action ([4]; S. epidermidis): bacteriostatic
Microbe count t24 h [5, 14]: 3.0 × 10^2
Δlog [5, 14]: −2.05
Microbe count t24 h ([5]; H2O, count t0 3.8 × 10^5): 2.5 × 10^5
Δlog ([5]; H2O, count t0 3.8 × 10^5): −0.18
Δlog ([6]; count after 48 h): −0.30
Microbe count t24 h ([6]; count carried out after 48 h): 1.0 × 10^4
Microbe count t24 h [7]: 0
Δlog ([7]; t24 h): −4.54
Microbe count t24 h [8]: 1.8 × 10^3
Δlog ([8]; t24 h): −1.41
Microbe count t24 h [9]: 1.2 × 10^4
Δlog ([9]; t24 h): −0.22
Microbe count t24 h [10]: 0
Δlog ([10]; t24 h): −4.83
Microbe count t24 h [11, 15]: 0
Δlog [11, 15]: −4.78
Microbe count t24 h ([11]; H2O, count t0 1.0 × 10^6): 5.0 × 10^4
Δlog ([11]; H2O, count t0 1.0 × 10^6): −1.30
Microbe count t24 h [12, 16]: 0
Δlog [12, 16]: −3.83
Microbe count t24 h ([12]; H2O, count t0 2.9 × 10^5): 9.0 × 10^5
Δlog ([12]; H2O, count t0 2.9 × 10^5): +0.49
Microbe count t24 h [13]: 2.0 × 10^4
Δlog ([13]; t24 h): −0.23
